Measurements taken from paper PMC4971055, “Identification and Characterization of the Corazonin Receptor and Possible Physiological Roles of the Corazonin-Signaling Pathway in Rhodnius prolixus” (Frontiers in Neuroscience, 2016).

Key:
Rhopr-CRZR-α = test: bioluminescence (calcium mobilizing) functional receptor assay, Rhopr-CRZR-α in CHOK1-aeq cells; type: cell-based, Rhodnius prolixus; details: for bioluminescence response (receptor activation): every 5 s over 15 s
Protocol: (§1) The ORF of the two Rhopr-CRZR variants were amplified and a Kozak translation initiation sequence was introduced at the 5′ end using primers listed in Supplementary Table 2. The resulting product was cloned into pGEM-T Easy vector and subcloned into pIRES2-ZsGreen1 (Clontech, Mountain View, CA, USA).
(§2) Chinese hamster ovary (CHO) cells stably expressing aequorin (CHOK1-aeq) (Paluzzi et al., [2010]) were cultured in complete media (94% Dulbecco's Modified Eagle Medium Nutrient Mixture F12-Ham (DMEM/F12) (Life Technologies Corporation, Carlsbad, CA, USA), 5% heat-inactivated fetal bovine serum (FBS), and 1% penicillin/streptomycin) containing 200 μg/mL Geneticin. The cells were incubated at 37°C in 5% CO2, and then transiently transfected with the expression vector for the receptor transcript variants using X-tremeGENE 9 DNA transfection reagent (Roche Applied Science, Indianapolis, IN, USA) at a ratio of 2:1 (transfection reagent to expression vector) using the manufacturer recommended protocol. Cells were also transiently transfected with an empty expression vector as a negative control.
(§3) The bioluminescence assay was performed 72 h post-transfection. The cells were first harvested with PBS/EDTA solution and suspended in bovine serum albumin BSA media (DMEM/F12 containing 1% BSA and 1% penicillin/streptomycin). The cells were incubated in the dark for 4–5 h at room temperature with 5 μM (final concentration) coelenterazine h (Promega, Madison, WI, USA) and then diluted 10-fold using BSA media. Various peptide concentrations were prepared with BSA media and loaded in triplicates on an opaque 96-well microplate. Cells were loaded into each well using an automated injector unit and luminescence was recorded over 15 s using a Wallac Victor2 plate reader (Perkin Elmer, San Diego, CA, USA). The peptides used were Rhopr-CRZ (pQTFQYSRGWTNamide), Rhopr-AKH (pQLTFSTDWamide), and Rhopr-ACP (pQVTFSRDWNAamide). Wells containing only the BSA media served as a blank control while wells containing 25, 50, and 100 μM ATP served as positive controls. Dose-response curves were obtained by averaging three replica plates and the EC50 values were determined using Prism5 software.

Rhopr-CRZR-β = test: bioluminescence (calcium mobilizing) functional receptor assay, Rhopr-CRZR-β in CHOK1-aeq cells; type: cell-based, Rhodnius prolixus; details: for bioluminescence response (receptor activation): every 5 s over 15 s
Protocol: as §1, §2, §3

Manduca sexta = tested on: Manduca sexta; design: method as in Kim et al., [2004]; details: ref Kim et al., [2004]; cited from earlier work
5th instar R. prolixus = details: in vitro in 5th instar R. prolixus; ref Patel et al., [2014]; cited from earlier work
Text: The percent knockdown of Rhopr-CRZR transcript after injection of dsCRZR into adult R. prolixus was quantified by qPCR in the dorsal vessel. […] The physiological effects of this decrease in Rhopr-CRZR on heartbeat frequency was studied in vivo and in vitro in adult R. prolixus.

Galleria mellonella = tested on: Galleria mellonella; design: method as in Hua et al., [2000]; Hansen et al., [2010]; details: ref Hua et al., [2000], Hansen et al., [2010]; cited from earlier work
Periplaneta americana = tested on: Periplaneta americana; design: method as in Veenstra, [1989]; details: cockroach Periplaneta americana; ref Veenstra, [1989]; cited from earlier work
[1] = tested on: dorsal vessel of adult R. prolixus; test: heartbeat assay in vitro; design: species or system Rhodnius prolixus; details: 10^−8 M Rhopr-CRZ; for increase in heartbeat frequency in vitro: compared to saline, n = 5
Protocol: Adult R. prolixus were anesthetized briefly with CO2 and injected with 2 μL of 2 μg/μL of dsCRZR or dsARG into the thorax using a 5 μL Hamilton syringe. Insects were left for 30 min at room temperature to recover and then kept in an incubator at 28°C on a 16 h: 8 h light/dark cycle. To determine knockdown efficiency, qPCR was performed 3 days post-injection.
Adult R. prolixus injected 3 days earlier with either dsCRZR or dsARG were dissected from the ventral surface under physiological saline (150 mM NaCl, 8.6 mM KCl, 2 mM CaCl2, 4 mM NaHCO3, and 8.5 mM MgCl2, 5 mM HEPES, pH 7.0). The digestive and reproductive systems were removed to expose the dorsal vessel. Electrodes attached to an impedance converter (UFI model 2991, Morro Bay, CA, USA) were positioned on either side of the dorsal vessel between the sixth and fifth abdominal segments. The heartbeat frequency was left to stabilize in 50 μL saline and the frequency of heartbeat measured from the traces recorded on a linear Flat-bed single channel chart recorder. The saline was then exchanged for 50 μL of 10^−8 M CRZ and the heartbeat frequency was again measured. The response to 10^−8 M CRZ was quantified by measuring the increase in heartbeat frequency compared to saline control.

Bombyx. mori = tested on: Bombyx. mori; design: method as in Hua et al., [2000]; Hansen et al., [2010]; details: ref Hua et al., [2000], Hansen et al., [2010]; cited from earlier work
Gryllus bimaculatus = tested on: Gryllus bimaculatus; design: method as in Hua et al., [2000]; Hansen et al., [2010]; details: ref Hua et al., [2000], Hansen et al., [2010]; cited from earlier work

| Substance | bioluminescence response (receptor activation) (Rhopr-CRZR-α; Rhopr-CRZR-α, 10^−6 M, n = 3) | bioluminescence response (receptor activation) (Rhopr-CRZR-β; Rhopr-CRZR-β, 10^−6 M, n = 3) | EC50 (Rhopr-CRZR-α; Rhopr-CRZR-α transiently expressed in CHOK1-aeq cells, coelenterazine h luminescence over 15 s, 72 h post-transfection, triplicates, three replica plates averaged) | time of maximum luminescence (Rhopr-CRZR-α; Rhopr-CRZR-α, during the first 5 s following activation, 10^−6 M, n = 3) | ecdysis behavior (Manduca sexta) | heartbeat frequency (5th instar R. prolixus) | dark body coloration (Galleria mellonella) | heartbeat rate (Periplaneta americana) | increase in heartbeat frequency in vitro ([1]; dsARG injected adults, vs dsCRZR unpaired t-test p = 0.0096) | heartbeat rate in vitro (in words) ([1]; dsARG injected insects, unpaired t-test p = 0.0096) | increase in heartbeat frequency in vitro ([1]; dsCRZR injected adults, vs dsARG unpaired t-test p = 0.0096) | dark body coloration (Bombyx. mori) | EC50 (Rhopr-CRZR-β; Rhopr-CRZR-β transiently expressed in CHOK1-aeq cells, coelenterazine h luminescence over 15 s, 72 h post-transfection, triplicates, three replica plates averaged) | time of maximum luminescence (Rhopr-CRZR-β; Rhopr-CRZR-β, during the first 5 s following activation, 10^−6 M, n = 3) | dark body coloration (Gryllus bimaculatus) |
| --- | --- | --- | --- | --- | --- | --- | --- | --- | --- | --- | --- | --- | --- | --- | --- |
| pQVTFSRDWNAamide [Rhopr-ACP, R. prolixus AKH/CRZ-related peptide, p[…]amide, reference compound] | without effect | without effect | – | – | – | – | – | – | – | – | – | – | – | – | – |
| pQLTFSTDWamide [Rhopr-AKH, R. prolixus adipokinetic hormone, pQLTFSTDWamide, reference compound] | without effect | without effect | – | – | – | – | – | – | – | – | – | – | – | – | – |
| pQTFQYSRGWTNamide [Rhopr-CRZ, Rhodnius prolixus corazonin neuropeptide, p…amide] | – | – | 2.7 nM | ≤ 5 s | initiate ecdysis behavior | increase heartbeat frequency in a dose-dependent manner | did not have such an effect | increases the heartbeat rate | 7.33 ± 0.8 beats/min | significantly increased the heartbeat rate | 2 ± 0.9 beats/min | did not have such an effect | 1 nM | ≤ 5 s | did not have such an effect |
